Counter-ions that a name gives are not always drawn.
Tests used:
Assay type in all cases: binding, mouse
[1] = system: murine monoclonal antibody 6H5D1C4 (DASM243-6H5D1C4); assay: Competition ELISA on BSA-Met1 coated plates: cross reactivity with methamphetamine analogs; conditions: methamphetamine recognized more than ecstasy
[2] = target: murine monoclonal antibody DASM243-6H5D1C4 (IgG2b), raised against TT-Met1; assay: RIA: affinity determination by competition between labeled and unlabeled metabolite; conditions: purified mAb, calculated by the method of Müller from IC50
[3] = target: murine monoclonal antibody DASM243-A10A6A2 (IgG1), raised against TT-Met1; assay: as above; conditions: purified mAb, calculated by the method of Müller from IC50

| SMILES | recognition of methamphetamine relative to ecstasy [1] [times] | Ka [2] [M⁻¹] | Ka [3] [M⁻¹] |
| --- | --- | --- | --- |
| CN[C@@H](C)Cc1ccccc1 [Methamphetamine, methamphetamine] | 10 |  |  |
| CNC(C)Cc1ccccc1 (stereo not drawn) [methamphetamine oxalate] |  | 2.58e+08 | 5.58e+06 |

— patent EP1331219A1
